Reference: patent US12544419B2, “Targeted amatoxin conjugate for the treatment of solid tumors” (Heidelberg Pharma Research GmbH, priority 2018, dated 2026)

Legend:
JIMT-1 cells = assay: Cell viability assay (BrdU incorporation), JIMT-1; assay type: cell-based; conditions: conjugated to Trastuzumab D265C
Description: (§1) Cytotoxic activity of anti PSMA and anti-Her2 amatoxin conjugates was evaluated in vitro with target-positive tumor cell lines and the chemiluminescent BrdU incorporation assay (Roche Diagnostics). Cell viability was determined after 96 h incubation with different concentrations of conjugates at 37° C. and 5% CO2 by measurement of fixed and permeabilized cells with an anti-BrdU-HRP antibody in a BMG Labtech Optima microplate reader. EC50 value of dose-response curve was calculated by Graphpad Prism 4.0 software.
JIMT-1 is a solid cancer cell line derived from a breast ductal adenocarcinoma.

LNCaP cells = assay: Cell viability assay (BrdU incorporation), LNCaP; assay type: cell-based; conditions: conjugated to anti-PSMA antibody h3/F11 D265C
Description: as §1
LNCaP is a solid prostate adenocarcinoma cell line derived from a left supraclavicular lymph node metastasis.

Raji cells = assay: CellTiter-Glo 2.0 cell viability assay, Raji; assay type: cell-based, human; conditions: conjugated to antiCD19 antibody chiBCE19 D265C
Description: Cytotoxic activity of anti CD19 amatoxin conjugates on target positive cells was assessed by CellTiter-Glo 2.0 Luminescent Cell Viability Assay (Promega, Madison, WI) in 96-well tissue culture plates. Cell viability was determined after 96 h incubation with different concentrations of conjugates at 37° C. and 5% CO2. Data analysis was performed with GraphPad Prism 7 (GraphPad Software, Inc, La Jolla, CA) software to plot curve fits and perform statistical analyses. Nonlinear variable slope curve-fits were plotted as log[ADC] vs. Response and EC50 values were generated.
Raji is a cell line derived from Burkitt's lymphoma.

[1] = system: Jimt-1 breast cancer cells (s.c. xenograft); assay: Jimt-1 xenograft model, tumor volume; assay type: in vivo, NMRI nude mice; conditions: conjugated to Trastuzumab D265C; JIMT xenografts; single intravenous dose
Description: (§2) Jimt-1 xenograft model: Female NMRI nude mice were inoculated with 5×10^6 Jimt-1 breast cancer cells per mouse subcutaneously in the right flank. At a mean tumor vol. of ˜120 mm^3, animals were allocated to groups on day 0. On the same day the animals received a single intravenous dose of amanitin based anti-Her2 antibody drug conjugates (ADCs) Tumor volume and body weight were determined twice per week.
(§3) Tumor growth was monitored by caliper measurement. Tumor size was calculated according to the equation: volume=W^2×L×0.5 (L=length and W=perpendicular width of the tumor, L>W).

[2] = system: LNCap prostate carcinoma cells (s.c. xenograft); assay: LnCap xenograft model, tumor volume; assay type: in vivo, CB17 SCID mice; conditions: conjugated to anti-PSMA antibody h3/F11 D265C; LnCap xenografts; single intravenous dose
Description: as §2, with “LnCap” for “Jimt-1”, “Male CB17 SCID” for “Female NMRI nude”, “2.5×10^6 LNCap prostate carcinoma” for “5×10^6 Jimt-1 breast cancer”, “˜150” for “˜120”, “anti-PSMA” for “anti-Her2”
as §3

[3] = system: Raji Burkitt's lymphoma cells (s.c. xenograft); assay: Raji s.c. xenograft model (solid tumor), tumor volume; assay type: in vivo, CB17 SCID mice; conditions: for Efficacy Raji sc: anti-CD19 conjugate, grade, key not given; for tumor shrinking activity (FIG. 7): conjugated to chiBCE19 D265C, Raji cells injected s.c., single intravenous dose
Description: as §2, with “Raji” for “Jimt-1”, “CB17 SCID” for “NMRI nude”, “2.5×10^6 Raji Burkitt's lymphoma” for “5×10^6 Jimt-1 breast cancer”, “˜80” for “˜120”, “anti-CD19” for “anti-Her2”
as §3
Growth inhibition experiments were then carried out with tumor xenografts of Raji cells injected into mice s.c. This approach leads to tumors that mimic the phenotype of a solid tumor.

[4] = system: Raji Luc cells (i.v. xenograft); assay: Intravenous Raji-Luc xenograft (liquid tumor), survival; assay type: in vivo, CB17 SCID mice; conditions: conjugated to chiBCE19 D265C; i.v. injected Raji Luc cells; single i.v. dose
Description: (§4) Intravenous Nalm-6 xenograft model: Female CB17 SCID mice were inoculated with 2.5×10^6 Raji Burkitt's lymphoma cells per mouse into the tail vein. Animals were allocated to groups on day 0. On day 3 after tumor cell injection, the animals received a single intravenous dose of amanitin based anti-CD19 antibody drug conjugates (ADCs). Body weight was determined twice per week. Survival was monitored daily.
as §4, with “[…]” for “Nalm-6”, “5×10^6 Nalm-6 B Cell precursor leukemia” for “2.5×10^6 Raji Burkitt's lymphoma”
(§5) Survival rates were then investigated with tumor xenografts of Raji cells (with or without transfected luciferase) or Nalm-6 cells obtained by i.v. administration of the respective cells.
(§6) Raji is a cell line derived from Burkitt's lymphoma, Nalm-6 is a cell line derived from acute lymphoblastic leukemia (ALL). Results are shown in the Kaplan Meier curves of FIG. 6.
(§7) Survival experiments were carried out with i.v. injected Raji Luc (FIG. 6A) or NALM6 (FIG. 6B) cells.

[5] = system: Nalm-6 cells (i.v. xenograft); assay: Intravenous Nalm-6 xenograft model (liquid tumor), survival; assay type: in vivo, CB17 SCID mice; conditions: conjugated to chiBCE19 D265C; i.v. injected NALM6 cells; single i.v. dose
Description: as §4
as §4, with “[…]” for “Nalm-6”, “5×10^6 Nalm-6 B Cell precursor leukemia” for “2.5×10^6 Raji Burkitt's lymphoma”
as §5, §6, §7

[6] = Highest non-severely toxic dose, DIG (Digoxigenin antibody) conjugates, Cyno; conditions: Digoxigenin antibody conjugate (no cross reaction with host targets); Cynomolgus monkey
RNA polymerase III = RNA polymerase III (Homo sapiens, UniProt O14802+Q9NW08); conditions: cited from earlier work
RNA polymerase I = RNA polymerase I (Homo sapiens, UniProt O95602+Q9H9Y6); conditions: cited from earlier work

Row | Compound | potency in cell viability assay (FIG. 1) (JIMT-1 cells) | potency in cell viability assay (FIG. 3) (LNCaP cells) | potency in cell viability assay (FIG. 5) (Raji cells) | tumor shrinking activity (FIG. 2) [1] | tumor shrinking activity (FIG. 4) [2] | Efficacy Raji sc [3] | tumor shrinking activity (FIG. 7) [3] | potency in survival experiment (FIG. 6A) [4] | potency in survival experiment (FIG. 6B) [5] | HNSTD DIG Cyno [6] | binding to RNA polymerase III (RNA polymerase III) | binding to RNA polymerase I (RNA polymerase I)
1 | CC[C@H](C)[C@@H]1NC(=O)CNC(=O)[C@@H]2Cc3c([nH]c4cc(OCc5ccc(NC(=O)[C@H](C)NC(=O)[C@@H](NC(=O)CCN6C(=O)C=CC6=O)C(C)C)cc5)ccc34)[S@+]([O-])CC(NC(=O)CNC1=O)C(=O)N[C@@H](CC(N)=O)C(=O)CN1CC(O)C[C@H]1C(=O)N[C@@H]([C@@H](C)[C@@H](O)CO)C(=O)N2 (stereo partly shown) [30.1699] | comparable potency | comparable potency | comparable potency | strong tumor shrinking activity | strong tumor shrinking activity | ∘ | strong tumor shrinking activity | lower potency than the Trp variant 30.2115 | lower potency than the Trp variant 30.2115 | >3 mg/kg | – | –
2 | CC[C@H](C)[C@@H]1NC(=O)CNC(=O)[C@@H]2Cc3c([nH]c4cc(O)ccc34)[S@+]([O-])CC(NC(=O)CNC1=O)C(=O)N[C@@H](CC(=O)NCc1ccc(NC(=O)[C@H](C)NC(=O)C(NC(=O)CCN3C(=O)C=CC3=O)C(C)C)cc1)C(=O)CN1CC(O)C[C@H]1C(=O)N[C@@H]([C@@H](C)[C@@H](O)CO)C(=O)N2 (stereo partly shown) [30.2060] | comparable potency | comparable potency | comparable potency | strong tumor shrinking activity | strong tumor shrinking activity | ∘ | strong tumor shrinking activity | – | – | <7.5 mg/kg | – | –
3 | CC[C@H](C)[C@@H]1NC(=O)CNC(=O)[C@@H]2Cc3c([nH]c4ccccc34)SCC(NC(=O)CNC1=O)C(=O)N[C@@H](CC(=O)NCc1ccc(NC(=O)[C@H](C)NC(=O)C(NC(=O)CCN3C(=O)C=CC3=O)C(C)C)cc1)C(=O)CN1CC(O)C[C@H]1C(=O)N[C@@H]([C@@H](C)[C@@H](O)CO)C(=O)N2 (stereo partly shown) [30.2115, reference compound] | slightly decreased potency | strongly decreased potency | comparable potency | significantly decreased tumor shrinking activity | significantly decreased tumor shrinking activity | – | significantly decreased tumor shrinking activity | – | – | <7.5 mg/kg | – | –
4 | CC[C@H](C)[C@@H]1NC(=O)CNC(=O)[C@@H]2Cc3c([nH]c4ccccc34)[S+]([O-])CC(NC(=O)CNC1=O)C(=O)N[C@@H](CC(=O)NCc1ccc(NC(=O)[C@H](C)NC(=O)[C@@H](NC(=O)CCN3C(=O)C=CC3=O)C(C)C)cc1)C(=O)CN1CC(O)C[C@H]1C(=O)N[C@@H]([C@@H](C)[C@@H](O)CO)C(=O)N2 (stereo partly shown) [30.2183, reference compound] | strongly decreased potency | strongly decreased potency | comparable potency | significantly decreased tumor shrinking activity | significantly decreased tumor shrinking activity | – | significantly decreased tumor shrinking activity | – | – | – | – | –
5 | CC[C@H](C)[C@@H]1NC(=O)CNC(=O)[C@@H]2Cc3c([nH]c4cc(O)ccc34)SCC(NC(=O)CNC1=O)C(=O)N[C@@H](CC(=O)NCc1ccc(NC(=O)[C@H](C)NC(=O)C(NC(=O)CCN3C(=O)C=CC3=O)C(C)C)cc1)C(=O)CN1CC(O)C[C@H]1C(=O)N[C@@H]([C@@H](C)[C@@H](O)CO)C(=O)N2 (stereo partly shown) [30.2347] | comparable potency | comparable potency | comparable potency | strong tumor shrinking activity | strong tumor shrinking activity | ∘ | strong tumor shrinking activity | – | – | <5 mg/kg | – | –
6 | CC[C@H](C)[C@@H]1NC(=O)CNC(=O)[C@@H]2Cc3c([nH]c4cc(OCc5ccc(NC(=O)[C@H](C)NC(=O)[C@@H](NC(=O)CCN6C(=O)C=CC6=O)C(C)C)cc5)ccc34)SCC(NC(=O)CNC1=O)C(=O)N[C@@H](CC(N)=O)C(=O)CN1CC(O)C[C@H]1C(=O)N[C@@H]([C@@H](C)[C@@H](O)CO)C(=O)N2 (stereo partly shown) [30.2371] | comparable potency | comparable potency | comparable potency | strong tumor shrinking activity | strong tumor shrinking activity | ∘ | strong tumor shrinking activity | – | – | >2 mg/kg | – | –
7 | α-amanitin [Alpha-amanitin] | – | – | – | – | – | – | – | – | – | – | only slightly binds | no binding
